Data on 18 compounds can be found in patent publication EP4741392A1, “1H-PYRAZOLO[4,3-C]PYRIDINE COMPOUND, AND COMPOSITION THEREOF AND USE THEREOF” (Shenzhen TargetRx Co., Ltd., priority 2023, dated 2025).

Read-outs that look alike come from different tables or passages of the source.

Common to all, as to assay type: cell-based
One test has as its system OCI-LY10 cells. The experiment in a line: Viability assay of OCI-LY10 cells (CTG). The following applies: cell viability, read-out: OCl-Ly10. As for the experimental part: (§1) The in vitro antiproliferative activity of the compounds of the present disclosure against TMD8 cells and OCI-LY10 cells was assayed using CTG (Cell Titer-Glo) luminescent cell viability assay. The specific assay methods were as follows. • a) TMD8 cells were cultured at 37 °C and 5% CO2 in complete medium [RPMI 1640 (supplier Gibco, product number 22400-089) + 10% FBS (supplier Gibco, product number 10091-148) + 1% P/S (supplier Hyclone, product number SV30010)]; OCI-LY10 cells were cultured at 37 °C and 5% CO2 in medium [IMDM (supplier Gibco, product number 31980-030) + 20% FBS (supplier Gibco, product number 10091-148) + 1% P/S (supplier Hyclone, product number SV30010) + 0.05 mM 2-Mercaptoethanol (supplier Sigma, product number M6250)]. • b) Cells in the logarithmic growth phase were harvested, and the total cell count and viable cell count were determined using a Vi-cell cell counter (supplier: BECKMAN COULTER, product number 2785198). • c) Cell density was adjusted using complete culture medium. Then, the cells were inoculated at 1500 cells per well in a 384-well cell culture plate (supplier Greiner, product number 781090). • d) The cells in the 384-well plate were cultured at 37 °C and 5% CO2 overnight. • e) A 10-fold drug solution was prepared, and then the serially diluted compound was transferred to the corresponding assay wells of the 384-well cell plate so that the final assay concentration was 1000 nM, with 9 concentrations, 3-fold dilutions, and triplicates for each drug concentration. • f) The cells in the 384-well plate with the drug added were cultured at 37 °C and 5% CO2 for another 120 hours. • g) The cells were removed from the incubator, and allowed to equilibrate at room temperature for 30 minutes. The cell state and compound solubility were observed under a microscope. • h) An equal volume of CellTiterGlo solution (supplier Promega, product number G7573) was added to each well, and the plate was incubated at room temperature for 30 minutes. • i) Then, the luminescent signal value was detected on an EnVision instrument (supplier PerkinElmer, product number 2441715).
(§2) The data were analyzed using XL-fit software (supplier: ID Business Solutions Ltd., software version: XL fit 5.5.0.5). Nonlinear regression was performed using X=Log(X), and the X values were transformed using a four-parameter Logistic model 205, from which the IC50 values were calculated. Inhibition rate % = (Max−samplevalue)/Max*100.(Max:DMSOnegativecontrol) [formula]

Another test has as its system TMD8 cells. The experiment in a line: Viability assay of TMD8 cells (CTG). The following applies: cell viability, 120 hours. As for the experimental part:
as §1, §2

A further test has as its system NIH/3T3 BTK C481S cells. The experiment in a line: Phosphor-BTK(Y223) assay, adherent cells. The following applies: read-out: NIH/3T3 BTK-C481S pBTK. An outline of the steps: (§3)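 NIH/3T3 cells expressing WT or C481S BTK were pretreated with compound for 0.5 h at 37 °C, then stimulated with 1 mM Na3VO4 (final) for 2 h. Lysates were assayed by HTRF for p-BTK Y223 using the 665/620 nm ratio. IC50 was obtained by nonlinear fit of % inhibition versus 0.5% DMSO control.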

A further test deals with NIH/3T3 BTK WT cells. Kind of test: Phosphor-BTK(Y223) assay, adherent cells. The following applies: read-out: NIH/3T3 BTK-WT pBTK. An outline of the steps:
as §3

[1] abbreviates: Mus musculus, NIH3T3, phosphorylated BTK Y223, NIH/3T3 BTK C481S cells.
Where [2] appears, read: Mus musculus, NIH3T3, phosphorylated BTK Y223, NIH/3T3 BTK WT cells.
The mark [3] stands for this setting: phosphorylated BTK Y223, NIH/3T3 BTK C481S cells.
Where [4] appears, read: phosphorylated BTK Y223, NIH/3T3 BTK WT cells.

Take `COc1ccc(F)cc1C(=O)NCc1ccc(-c2nc(C(C)C(F)(F)F)cc3[nH]nc(N)c23)cc1` (single isomer, unassigned) [Example 2, N-(4-(3-amino-6-(1,1,1-trifluoropropan-2-yl)-1H-pyrazolo[4,3-c]pyridin-4-yl)benzyl)-5-fluoro-2-methoxybenzamide]: the IC50 in the test with OCI-LY10 cells (Homo sapiens, OCI-Ly10, 120 h) fell in the range of 10 to 50 nM; with TMD8 cells (Homo sapiens), 5 to 10 nM; in the test on NIH/3T3 BTK C481S cells (setting [1]) it was 10 to 50 nM; in the test with NIH/3T3 BTK WT cells (setting [2]), 5 to 10 nM.
Consider `COc1ccc(F)cc1C(=O)NCc1ccc(-c2nc(C(C)C(F)(F)F)cc3[nH]nc(N)c23)cc1` (single isomer, unassigned) [Example 3, N-(4-(3-amino-6-(1,1,1-trifluoropropan-2-yl)-1H-pyrazolo[4,3-c]pyridin-4-yl)benzyl)-5-fluoro-2-methoxybenzamide], for which the IC50 in the test on OCI-LY10 cells (120 hours) is 10 to 50 nM; with TMD8 cells, 5 to 10 nM; with NIH/3T3 BTK C481S cells (setting [3]), 5 to 10 nM; with NIH/3T3 BTK WT cells (setting [4]), not above 5 nM.
In the case of `COc1ccc(F)cc1C(=O)NCc1ccc(-c2nc(C(C)C(F)(F)F)c(-c3ccn(C)n3)c3[nH]nc(N)c23)cc1` (single isomer, unassigned) [Example 6-1, N-(4-(3-amino-7-(1-methyl-1H-pyrazol-3-yl)-6-(1,1,1-trifluoropropan-2-yl)-1H-pyrazolo[4,3-c]pyridin-4-yl)benzyl)-5-fluoro-2-methoxybenzamide], the IC50 with OCI-LY10 cells (Homo sapiens, OCI-Ly10, 120 h) was 5 to 10 nM; in the test on TMD8 cells (Homo sapiens), not above 5 nM; in the test on NIH/3T3 BTK C481S cells (setting [1]), 10 to 50 nM; in the test on NIH/3T3 BTK WT cells (setting [2]) it was not above 5 nM.
`COc1ccc(F)cc1C(=O)NCc1ccc(-c2nc(C(C)C(F)(F)F)c(-c3ccn(C)n3)c3[nH]nc(N)c23)cc1` (single isomer, unassigned) [Example 6-2, N-(4-(3-amino-7-(1-methyl-1H-pyrazol-3-yl)-6-(1,1,1-trifluoropropan-2-yl)-1H-pyrazolo[4,3-c]pyridin-4-yl)benzyl)-5-fluoro-2-methoxybenzamide]: the IC50 with OCI-LY10 cells (120 hours) is not above 5 nM; with TMD8 cells, not above 5 nM; with NIH/3T3 BTK C481S cells (setting [3]) it was 10 to 50 nM; in the test with NIH/3T3 BTK WT cells (setting [4]), not above 5 nM.
As to `COc1ccc(F)cc1C(=O)NCc1ccc(-c2ncc(-c3nccn4cccc34)c3[nH]nc(N)c23)cc1` [Example 77, N-(4-(3-amino-7-(pyrrolo[1,2-a]pyrazin-1-yl)-1H-pyrazolo[4,3-c]pyridin-4-yl)benzyl)-5-fluoro-2-methoxybenzamide], the IC50 in the test with NIH/3T3 BTK C481S cells (setting [1]) and with NIH/3T3 BTK WT cells (setting [2]) was not above 5 nM in each case.
Regarding `COc1ccc(F)cc1C(=O)NCc1ccc(-c2ncc(-c3cc4cnccn4n3)c3[nH]nc(N)c23)cc1` [Example 78, N-(4-(3-amino-7-(pyrazolo[1,5-a]pyrazin-2-yl)-1H-pyrazolo[4,3-c]pyridin-4-yl)benzyl)-5-fluoro-2-methoxybenzamide], the IC50 in the test on NIH/3T3 BTK C481S cells (setting [1]) and in the test on NIH/3T3 BTK WT cells (setting [2]) was not above 5 nM each time.
Regarding `COc1ccc(F)cc1C(=O)NCc1ccc(-c2ncc(-c3ccc(NC(=O)C4CC4)cn3)c3[nH]nc(N)c23)cc1` [Example 79, N-(4-(3-amino-7-(5-(cyclopropaneformamido)pyridin-2-yl)-1H-pyrazolo[4,3-c]pyridin-4-yl)benzyl)-5-fluoro-2-methoxybenzamide], the IC50 was 10 to 50 nM with NIH/3T3 BTK C481S cells (setting [1]) and 5 to 10 nM in the test with NIH/3T3 BTK WT cells (setting [2]).
With `COc1ccc(F)cc1C(=O)NCc1ccc(-c2ncc(-c3cc(NC(=O)C4CC4)ccn3)c3[nH]nc(N)c23)cc1` [Example 80, N-(4-(3-amino-7-(4-(cyclopropaneformamido)pyridin-2-yl)-1H-pyrazolo[4,3-c]pyridin-4-yl)benzyl)-5-fluoro-2-methoxybenzamide], the IC50 in the test with NIH/3T3 BTK C481S cells (setting [1]) and in the test on NIH/3T3 BTK WT cells (setting [2]) was 5 to 10 nM throughout.
On to `COc1ccc(F)cc1C(=O)NCc1ccc(-c2ncc(-c3ccc(F)cn3)c3[nH]nc(N)c23)c(F)c1` [Example 82, N-(4-(3-amino-7-(5-fluoropyridin-2-yl)-1H-pyrazolo[4,3-c]pyridin-4-yl)-3-fluorobenzyl)-5-fluoro-2-methoxybenzamide], for which the IC50 with NIH/3T3 BTK C481S cells (setting [1]) and in the test with NIH/3T3 BTK WT cells (setting [2]) was not above 5 nM in each case.
`COc1ccc(F)cc1C(=O)NCc1ccc(-c2ncc(-c3nccn4nccc34)c3[nH]nc(N)c23)cc1` [Example 98, N-(4-(3-amino-7-(pyrazolo[1,5-a]pyrazin-4-yl)-1H-pyrazolo[4,3-c]pyridin-4-yl)benzyl)-5-fluoro-2-methoxybenzamide]: the IC50 with NIH/3T3 BTK C481S cells (setting [1]) and with NIH/3T3 BTK WT cells (setting [2]) was not above 5 nM throughout.
For the compound `COc1ccc(F)cc1C(=O)NCc1ccc(-c2ncc(-c3nc4ccccc4s3)c3[nH]nc(N)c23)cc1` [Example 99, N-(4-(3-amino-7-(benzo[d]thiazol-2-yl)-1H-pyrazolo[4,3-c]pyridin-4-yl)benzyl)-5-fluoro-2-methoxybenzamide], the IC50 is 5 to 10 nM with NIH/3T3 BTK C481S cells (setting [1]) and not above 5 nM in the test on NIH/3T3 BTK WT cells (setting [2]).
For `COc1ccc(F)cc1C(=O)NCc1ccc(-c2ncc(-c3nc4cccnc4s3)c3[nH]nc(N)c23)cc1` [Example 100, N-(4-(3-amino-7-(thiazolo[5,4-b]pyridin-2-yl)-1H-pyrazolo[4,3-c]pyridin-4-yl)benzyl)-5-fluoro-2-methoxybenzamide], in that order: 5 to 10 nM and not above 5 nM.
`CCN1CCc2nc(-c3cnc(-c4ccc(CNC(=O)c5cc(F)ccc5OC)cc4)c4c(N)n[nH]c34)sc2C1` [Example 101, N-(4-(3-amino-7-(5-ethyl-4,5,6,7-tetrahydrothiazolo[5,4-c]pyridin-2-yl)-1H-pyrazolo[4,3-c]pyridin-4-yl)benzyl)-5-fluoro-2-methoxybenzamide]: the IC50 in the test on NIH/3T3 BTK C481S cells (setting [1]) and with NIH/3T3 BTK WT cells (setting [2]) was not above 5 nM in each case.
As for `COc1ccc(F)cc1C(=O)NCc1ccc(-c2ncc(-c3ccc4c(n3)nc3n4CCOC3)c3[nH]nc(N)c23)cc1` [Example 102, N-(4-(3-amino-7-(6,7-dihydro-9H-pyrido[2',3':4,5]imidazo[2,1-c][1,4]oxazin-2-yl)-1H-pyrazolo[4,3-c]pyridin-4-yl)benzyl)-5-fluoro-2-methoxybenzamide], the IC50 in the test on NIH/3T3 BTK C481S cells (setting [1]) and in the test with NIH/3T3 BTK WT cells (setting [2]) was 10 to 50 nM in each case.
For the compound `COc1ccc(F)cc1C(=O)NCc1ccc(-c2ncc(-c3ccc4c(n3)nc3n4C(C)COC3)c3[nH]nc(N)c23)cc1` (centres unmarked) [Example 103, N-(4-(3-amino-7-(6-methyl-6,7-dihydro-9H-pyrido[2',3':4,5]imidazo[2,1-c][1,4]oxazin-2-yl)-1H-pyrazolo[4,3-c]pyridin-4-yl)benzyl)-5-fluoro-2-methoxybenzamide], the IC50 in the test on NIH/3T3 BTK C481S cells (setting [1]) lay within 10 to 50 nM; in the test on NIH/3T3 BTK WT cells (setting [2]), 5 to 10 nM.
As for `COc1ccc(F)cc1C(=O)NCc1ccc(-c2ncc(-c3cccnc3)c3[nH]nc(N)c23)cc1` [Example 105, N-(4-(3-amino-7-(pyridin-3-yl)-1H-pyrazolo[4,3-c]pyridin-4-yl)benzyl)-5-fluoro-2-methoxybenzamide], the IC50 with NIH/3T3 BTK C481S cells (setting [1]) and in the test with NIH/3T3 BTK WT cells (setting [2]) was more than 50 nM in each case.
`COc1ccc(F)cc1C(=O)NCc1ccc(-c2ncc(-c3ccncc3)c3[nH]nc(N)c23)cc1` [Example 106, N-(4-(3-amino-7-(pyridin-4-yl)-1H-pyrazolo[4,3-c]pyridin-4-yl)benzyl)-5-fluoro-2-methoxybenzamide]: the IC50 in the test with NIH/3T3 BTK C481S cells (setting [1]) and with NIH/3T3 BTK WT cells (setting [2]) was more than 50 nM throughout.
On to “N-(4-(3-amino-7-(1-(difluoromethyl)-1H-pyrazol-3-yl)-1H-pyrazolo[4,3-c]pyridin-4-yl)benzyl)-5-fluoro-2-methoxybenzamide [Example 29]”, for which the results for the IC50 with NIH/3T3 BTK C481S cells (setting [3]) and in the test on NIH/3T3 BTK WT cells (setting [4]) were 5 to 10 nM and not above 5 nM, respectively.
